Measured values published in the kinase profiling compilation of Christmann-Franck et al. (2016).

Legend:
Test in all cases: radiometric filter-binding kinase assay
[1] = target: CDK9 CCNT1 (human) (UniProt P50750+O60563)
[2] = target: STK24 (human) (UniProt Q9Y6E0)
[3] = target: IRAK1 (human) (UniProt P51617)
[4] = target: PRKCG (human) (UniProt P05129)
[5] = target: ZAP70 (human) (UniProt P43403)
[6] = target: ULK2 (human) (UniProt Q8IYT8)
[7] = target: STK16 (human) (UniProt O75716)
[8] = target: TTBK1 (human) (UniProt Q5TCY1)
Sequence of TTBK1 (human) (Q5TCY1 whole entry, looked up): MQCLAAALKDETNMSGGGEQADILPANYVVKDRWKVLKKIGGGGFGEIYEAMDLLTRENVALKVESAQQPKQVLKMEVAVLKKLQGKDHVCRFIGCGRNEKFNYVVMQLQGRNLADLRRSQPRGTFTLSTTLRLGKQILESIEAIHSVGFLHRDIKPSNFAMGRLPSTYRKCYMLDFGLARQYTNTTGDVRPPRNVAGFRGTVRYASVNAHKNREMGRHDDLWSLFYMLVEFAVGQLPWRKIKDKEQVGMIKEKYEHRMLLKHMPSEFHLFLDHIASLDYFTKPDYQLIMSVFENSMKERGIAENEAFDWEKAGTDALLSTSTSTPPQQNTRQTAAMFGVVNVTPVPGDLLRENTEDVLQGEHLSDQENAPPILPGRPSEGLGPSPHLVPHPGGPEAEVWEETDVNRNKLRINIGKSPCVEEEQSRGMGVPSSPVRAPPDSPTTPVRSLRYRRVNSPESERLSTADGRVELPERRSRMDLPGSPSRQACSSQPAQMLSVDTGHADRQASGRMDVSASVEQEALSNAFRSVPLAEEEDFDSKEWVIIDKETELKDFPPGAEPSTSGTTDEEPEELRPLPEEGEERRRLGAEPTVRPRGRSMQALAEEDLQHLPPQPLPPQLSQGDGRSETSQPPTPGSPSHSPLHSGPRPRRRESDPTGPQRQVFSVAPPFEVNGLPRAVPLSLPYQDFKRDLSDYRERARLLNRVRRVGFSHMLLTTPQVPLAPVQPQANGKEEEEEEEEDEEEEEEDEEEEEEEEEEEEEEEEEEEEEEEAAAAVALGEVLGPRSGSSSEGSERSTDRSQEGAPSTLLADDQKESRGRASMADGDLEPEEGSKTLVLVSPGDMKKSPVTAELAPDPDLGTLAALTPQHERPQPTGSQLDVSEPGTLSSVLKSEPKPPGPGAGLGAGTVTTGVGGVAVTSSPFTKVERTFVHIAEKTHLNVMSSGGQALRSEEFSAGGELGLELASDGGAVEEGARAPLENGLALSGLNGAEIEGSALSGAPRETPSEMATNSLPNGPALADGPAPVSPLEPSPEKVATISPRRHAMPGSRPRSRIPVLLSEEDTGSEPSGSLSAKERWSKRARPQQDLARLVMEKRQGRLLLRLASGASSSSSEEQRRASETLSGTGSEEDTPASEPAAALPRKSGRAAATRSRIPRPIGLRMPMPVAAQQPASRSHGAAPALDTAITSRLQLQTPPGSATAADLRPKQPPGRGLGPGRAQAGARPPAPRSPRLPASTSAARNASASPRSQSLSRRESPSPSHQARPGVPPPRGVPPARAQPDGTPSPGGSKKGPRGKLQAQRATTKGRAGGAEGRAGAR

[9] = target: TLK1 (human) (UniProt Q9UKI8)
[10] = target: STK33 (human) (UniProt Q9BYT3)
[11] = target: WNK1 (human) (UniProt Q9H4A3)
[12] = target: MYLK (human) (UniProt Q15746)
[13] = target: SIK3 (human) (UniProt Q9Y2K2)
[14] = target: SIK2 (human) (UniProt Q9H0K1)
[15] = target: ULK1 (human) (UniProt O75385)
Sequence of ULK1 (human) (O75385 whole entry, looked up): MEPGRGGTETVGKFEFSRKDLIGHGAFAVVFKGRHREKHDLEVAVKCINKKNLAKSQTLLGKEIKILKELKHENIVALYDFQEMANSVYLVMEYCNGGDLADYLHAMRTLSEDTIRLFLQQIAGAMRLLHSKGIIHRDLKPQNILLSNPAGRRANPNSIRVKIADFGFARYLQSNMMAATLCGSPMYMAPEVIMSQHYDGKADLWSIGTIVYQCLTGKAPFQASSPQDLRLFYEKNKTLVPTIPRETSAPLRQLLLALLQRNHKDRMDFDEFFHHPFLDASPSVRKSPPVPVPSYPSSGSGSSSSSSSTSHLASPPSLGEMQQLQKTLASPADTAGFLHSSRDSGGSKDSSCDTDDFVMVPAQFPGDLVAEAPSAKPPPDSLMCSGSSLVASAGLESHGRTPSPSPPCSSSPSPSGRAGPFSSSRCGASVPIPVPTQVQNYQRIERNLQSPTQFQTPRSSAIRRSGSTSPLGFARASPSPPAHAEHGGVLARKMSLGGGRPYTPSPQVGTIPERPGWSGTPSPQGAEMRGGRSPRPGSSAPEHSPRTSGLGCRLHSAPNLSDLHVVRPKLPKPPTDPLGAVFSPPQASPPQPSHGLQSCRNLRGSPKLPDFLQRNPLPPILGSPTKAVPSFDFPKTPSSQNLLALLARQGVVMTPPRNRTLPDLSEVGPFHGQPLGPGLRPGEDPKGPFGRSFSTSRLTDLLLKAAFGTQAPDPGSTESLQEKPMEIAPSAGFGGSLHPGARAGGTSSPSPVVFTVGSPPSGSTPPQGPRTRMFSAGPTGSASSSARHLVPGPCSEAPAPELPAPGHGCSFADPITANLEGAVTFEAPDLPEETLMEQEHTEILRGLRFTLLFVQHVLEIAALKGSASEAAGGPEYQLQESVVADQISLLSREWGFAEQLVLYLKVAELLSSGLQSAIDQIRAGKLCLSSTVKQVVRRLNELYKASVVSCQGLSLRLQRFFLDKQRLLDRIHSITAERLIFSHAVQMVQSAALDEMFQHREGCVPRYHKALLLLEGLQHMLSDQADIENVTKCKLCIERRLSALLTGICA

[16] = target: TSSK1B (human) (UniProt Q9BXA7)
[17] = target: CSNK1G2 (human) (UniProt P78368)
[18] = target: DDR2 (human) (UniProt Q16832)
[19] = target: EIF2AK3 (human) (UniProt Q9NZJ5)
[20] = target: TESK1 (human) (UniProt Q15569)
[21] = test system: OXSR1 (human), O95747 [T185E]
Sequence of OXSR1 (human), O95747 [T185E] (O95747 whole entry T185E, looked up): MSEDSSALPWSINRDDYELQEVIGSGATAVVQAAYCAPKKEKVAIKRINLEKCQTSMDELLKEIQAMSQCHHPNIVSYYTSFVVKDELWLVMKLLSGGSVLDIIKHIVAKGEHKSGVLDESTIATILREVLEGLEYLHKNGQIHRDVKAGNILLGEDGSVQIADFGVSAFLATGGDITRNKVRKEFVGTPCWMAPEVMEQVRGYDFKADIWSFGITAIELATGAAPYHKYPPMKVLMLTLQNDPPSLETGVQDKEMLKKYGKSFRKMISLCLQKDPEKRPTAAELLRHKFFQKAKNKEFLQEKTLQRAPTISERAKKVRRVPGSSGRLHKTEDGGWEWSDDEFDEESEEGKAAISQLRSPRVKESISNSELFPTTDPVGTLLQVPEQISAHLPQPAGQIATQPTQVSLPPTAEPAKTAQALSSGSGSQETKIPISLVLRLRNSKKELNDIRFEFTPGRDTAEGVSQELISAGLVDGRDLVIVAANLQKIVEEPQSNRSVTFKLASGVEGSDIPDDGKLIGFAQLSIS

[22] = target: TEK (human) (UniProt Q02763)
[23] = target: PTK6 (human) (UniProt Q13882)
[24] = target: ABL1 (human) (UniProt P00519)
Sequence of ABL1 (human) (P00519 whole entry, looked up): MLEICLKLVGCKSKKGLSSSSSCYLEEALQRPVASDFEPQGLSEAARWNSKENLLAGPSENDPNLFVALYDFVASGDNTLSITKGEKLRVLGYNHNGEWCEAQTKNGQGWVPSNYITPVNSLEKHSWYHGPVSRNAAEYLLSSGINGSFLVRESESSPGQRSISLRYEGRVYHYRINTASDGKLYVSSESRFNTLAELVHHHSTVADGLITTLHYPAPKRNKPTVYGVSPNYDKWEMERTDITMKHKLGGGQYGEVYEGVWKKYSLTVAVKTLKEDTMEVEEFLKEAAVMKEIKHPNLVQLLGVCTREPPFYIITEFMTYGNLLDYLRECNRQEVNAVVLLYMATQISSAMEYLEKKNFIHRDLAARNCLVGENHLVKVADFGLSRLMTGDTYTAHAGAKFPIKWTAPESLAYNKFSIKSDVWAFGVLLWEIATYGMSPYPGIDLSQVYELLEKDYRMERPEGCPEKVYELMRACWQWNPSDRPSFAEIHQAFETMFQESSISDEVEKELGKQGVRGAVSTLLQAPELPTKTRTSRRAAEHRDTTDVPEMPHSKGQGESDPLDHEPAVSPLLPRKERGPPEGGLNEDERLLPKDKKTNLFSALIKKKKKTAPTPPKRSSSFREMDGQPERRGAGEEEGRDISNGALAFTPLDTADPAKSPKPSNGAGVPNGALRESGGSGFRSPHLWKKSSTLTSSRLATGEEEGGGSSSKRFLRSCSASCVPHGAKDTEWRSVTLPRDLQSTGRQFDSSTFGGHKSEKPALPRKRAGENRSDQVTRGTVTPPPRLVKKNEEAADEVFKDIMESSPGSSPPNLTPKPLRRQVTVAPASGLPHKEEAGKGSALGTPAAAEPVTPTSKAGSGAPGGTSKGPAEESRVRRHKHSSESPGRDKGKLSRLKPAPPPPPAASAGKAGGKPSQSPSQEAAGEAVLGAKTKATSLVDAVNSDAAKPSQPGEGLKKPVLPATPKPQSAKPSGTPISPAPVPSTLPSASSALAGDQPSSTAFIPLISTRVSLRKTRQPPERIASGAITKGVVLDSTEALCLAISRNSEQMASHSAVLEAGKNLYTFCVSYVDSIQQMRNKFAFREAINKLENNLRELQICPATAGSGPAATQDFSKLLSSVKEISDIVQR

Sequence of ULK2 (human) (Q8IYT8 whole entry, looked up): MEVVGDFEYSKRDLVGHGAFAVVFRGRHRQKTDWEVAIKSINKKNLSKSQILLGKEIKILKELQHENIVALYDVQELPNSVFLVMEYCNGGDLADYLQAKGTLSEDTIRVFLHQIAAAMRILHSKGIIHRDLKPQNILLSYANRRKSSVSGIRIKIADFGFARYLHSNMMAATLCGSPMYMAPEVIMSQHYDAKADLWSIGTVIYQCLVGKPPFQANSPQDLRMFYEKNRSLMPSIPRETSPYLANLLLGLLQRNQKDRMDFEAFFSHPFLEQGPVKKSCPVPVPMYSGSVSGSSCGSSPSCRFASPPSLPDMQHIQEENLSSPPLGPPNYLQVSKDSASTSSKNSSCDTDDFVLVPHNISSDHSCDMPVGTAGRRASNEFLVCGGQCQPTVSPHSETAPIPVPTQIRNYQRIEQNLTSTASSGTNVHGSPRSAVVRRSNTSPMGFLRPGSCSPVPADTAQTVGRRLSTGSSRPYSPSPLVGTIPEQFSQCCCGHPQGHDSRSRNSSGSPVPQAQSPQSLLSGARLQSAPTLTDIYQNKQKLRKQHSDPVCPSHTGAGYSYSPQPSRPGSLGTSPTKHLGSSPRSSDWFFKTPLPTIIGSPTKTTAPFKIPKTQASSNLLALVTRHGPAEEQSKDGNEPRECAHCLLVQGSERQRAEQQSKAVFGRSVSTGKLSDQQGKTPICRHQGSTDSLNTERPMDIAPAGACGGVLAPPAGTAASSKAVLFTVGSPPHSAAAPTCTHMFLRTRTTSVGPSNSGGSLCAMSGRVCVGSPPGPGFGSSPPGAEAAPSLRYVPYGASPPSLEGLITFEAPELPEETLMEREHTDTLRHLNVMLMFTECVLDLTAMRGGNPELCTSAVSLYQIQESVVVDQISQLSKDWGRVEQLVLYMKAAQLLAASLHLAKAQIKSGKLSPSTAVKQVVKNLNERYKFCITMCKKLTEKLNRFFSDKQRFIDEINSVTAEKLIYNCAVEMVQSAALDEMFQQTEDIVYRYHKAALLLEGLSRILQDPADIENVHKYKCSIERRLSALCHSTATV

Work on `CN(C)C/C=C/C(=O)Nc1cccc(C(=O)Nc2ccc(Nc3nccc(-c4cccnc4)n3)cc2)c1` yielded a residual activity ([1]; compound 0.1 µM) of 22%, a residual activity ([1]; compound 1.0 µM) of 42% and a residual activity ([2]; compound 0.1 µM) of 94%. For the same molecule, the residual activity ([2]; compound 1.0 µM) was 93%, the residual activity ([3]; compound 0.1 µM) was 26% and the residual activity ([3]; compound 1.0 µM) was 5%. For the same molecule, the residual activity ([4]; compound 0.1 µM) was 96%, the residual activity ([4]; compound 1.0 µM) was 101% and the residual activity ([5]; compound 0.1 µM) was 82%. It also gave a residual activity ([5]; compound 1.0 µM) of 123%, a residual activity ([6]; compound 0.1 µM) of 50% and a residual activity ([6]; compound 1.0 µM) of 69%. The residual activity ([7]; compound 0.1 µM) was 108%, the residual activity ([7]; compound 1.0 µM) was 103% and the residual activity ([8]; compound 0.1 µM) was 88%. For the same molecule, the residual activity ([8]; compound 1.0 µM) was 79%, the residual activity ([9]; compound 0.1 µM) was 99% and the residual activity ([9]; compound 1.0 µM) was 98%. It also gave a residual activity ([10]; compound 0.1 µM) of 92%, a residual activity ([10]; compound 1.0 µM) of 91% and a residual activity ([11]; compound 0.1 µM) of 103%. It also gave a residual activity ([11]; compound 1.0 µM) of 117%, a residual activity ([12]; compound 0.1 µM) of 96% and a residual activity ([12]; compound 1.0 µM) of 85%. It also gave a residual activity ([13]; compound 0.1 µM) of 81%, a residual activity ([13]; compound 1.0 µM) of 64% and a residual activity ([14]; compound 0.1 µM) of 78%. It also gave a residual activity ([14]; compound 1.0 µM) of 67%, a residual activity ([15]; compound 0.1 µM) of 37% and a residual activity ([15]; compound 1.0 µM) of 63%. It also gave a residual activity ([16]; compound 0.1 µM) of 88%, a residual activity ([16]; compound 1.0 µM) of 101% and a residual activity ([17]; compound 0.1 µM) of 88%. For the same molecule, the residual activity ([17]; compound 1.0 µM) was 88%, the residual activity ([18]; compound 0.1 µM) was 89% and the residual activity ([18]; compound 1.0 µM) was 108%. For the same molecule, the residual activity ([19]; compound 0.1 µM) was 90%, the residual activity ([19]; compound 1.0 µM) was 99% and the residual activity ([20]; compound 0.1 µM) was 90%. The residual activity ([20]; compound 1.0 µM) was 98%, the residual activity ([21]; compound 0.1 µM) was 99% and the residual activity ([21]; compound 1.0 µM) was 105%. The residual activity ([22]; compound 0.1 µM) was 94%, the residual activity ([22]; compound 1.0 µM) was 84% and the residual activity ([23]; compound 0.1 µM) was 81%. The residual activity ([23]; compound 1.0 µM) was 81%, the residual activity ([24]; compound 0.1 µM) was 77% and the residual activity ([24]; compound 1.0 µM) was 85%.
